These results are taken from patent EP4471048A1, “PEPTIDE INHIBITORS OF INTERLEUKIN-23 RECEPTOR” (Zealand Pharma A/S, priority 2023, dated 2024).

Where two headings read alike, the source gives them in different places. *1 amine or outer side, *2 acyl side, *3 side chain or, on linkers, in order; H or OH if unused. Where a SMILES comes first, the peptide text is derived from it. Bridges are numbered along the chain shown (N, C = ends). [ ]: non-standard residue; d: D form. 2Nal = N[C@@H](Cc1ccc2ccccc2c1)C(=O)O; CH2COCH2 = O=C(C[*:1])C[*:2]; 3Amb = NCc1cccc(C(=O)O)c1

One data set addresses T1, human IL-23R (Homo sapiens, UniProt Q5VWK5).
T1 sequence (Q5VWK5 22-629): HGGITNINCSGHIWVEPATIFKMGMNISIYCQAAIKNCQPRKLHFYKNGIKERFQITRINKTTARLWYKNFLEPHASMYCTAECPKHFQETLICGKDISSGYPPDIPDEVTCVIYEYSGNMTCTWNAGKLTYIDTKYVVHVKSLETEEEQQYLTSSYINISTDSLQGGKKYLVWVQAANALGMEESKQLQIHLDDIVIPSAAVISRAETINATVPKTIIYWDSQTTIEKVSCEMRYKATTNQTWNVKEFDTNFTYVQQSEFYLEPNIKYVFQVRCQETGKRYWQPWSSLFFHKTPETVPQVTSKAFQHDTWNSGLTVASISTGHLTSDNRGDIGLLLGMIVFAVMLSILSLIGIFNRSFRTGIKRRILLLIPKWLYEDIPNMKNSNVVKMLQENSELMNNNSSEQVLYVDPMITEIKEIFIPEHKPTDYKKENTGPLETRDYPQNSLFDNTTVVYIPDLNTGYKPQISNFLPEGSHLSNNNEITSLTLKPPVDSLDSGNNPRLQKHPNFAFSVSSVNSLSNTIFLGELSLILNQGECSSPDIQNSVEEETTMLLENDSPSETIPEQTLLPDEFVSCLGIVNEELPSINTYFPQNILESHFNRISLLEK
The data set is described as follows: biochemical. In short, it runs like this:
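Membranes from HEK293 cells stably expressing Nluc-tagged human IL-23R were incubated 2 h at room temperature with test compound and a fluorophore-labelled tracer. After substrate addition, loss of BRET (TAMRA over luciferase emission) reported tracer displacement. A 4PL fit gave IC50 values.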

For data set [1], the target named is IL-23 mediated signalling (Homo sapiens, UniProt Q5VWK5). The data set is described as follows: Functional inhibition of IL-23 mediated STAT3 signalling (phospho-STAT3 MSD) in DB cells. In kind it is cell-based. As to conditions: DB cells, hIL-23 at EC80; for Emax: maximal inhibitory response, read-out: hIL-23 (pSTAT3) antagonist % inhibition. The method in brief: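 DB cells preincubated with inhibitor 15 min at 37 °C, then stimulated 90 min with EC80 human IL-23; lysate phospho-STAT3 measured by MSD electrochemiluminescence. Signal normalized to IL-23-alone and buffer controls; IC50 and maximal % inhibition from 4-parameter logistic fit.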

Data set [2] is described as follows: Peptide stability in simulated intestinal fluid (SIF). In kind it is in vitro ADME. The note with it: 37 °C, porcine pancreatin; for remaining at 1 h, 10 µM / remaining at 4 h, 10 µM: pig; for remaining at 1 h, 10 µM: pH 6.8, 1 h. The method in brief: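 Peptides were incubated at 37 °C with gentle shaking in pH 6.8 potassium phosphate SIF containing porcine pancreatin (10 g/L). Supernatants were analysed by LC-HRMS. Percent remaining at each timepoint, including 4 h, was calculated relative to time zero from absolute peak areas.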

Data set [3] is described as follows: Peptide stability in simulated gastric fluid (SGF). In kind it is in vitro ADME. The note with it: 37 °C, porcine pepsin; for remaining at 1 h, 10 µM / remaining at 4 h, 10 µM: pig, simulated gastric fluid (SGF) with porcine pepsin (3.2 g/L); for remaining at 1 h, 10 µM: pH 1.2, 1 h, read-out: SGF (% remaining 1 h). The method in brief: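 Peptide incubated at 37 °C with gentle shaking in SGF (NaCl, pH 1.2). Samples centrifuged, diluted and analysed by LC-HRMS; percent remaining at each timepoint from absolute peak areas relative to time zero, with 4 h as the reference point.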

Where [4] appears, read: Table 3-2, read-out: hIL-23 (pSTAT3) antagonist IC50.
Setting [5] is: pH 6.8, 4 h, read-out: SIF (% remaining 4 h).
Where [6] appears, read: pH 1.2, 10 µM, pH 1.2, 4 h, read-out: SGF (% remaining 4 h).
[7] abbreviates: SAR tables 2-1 to 2-7, read-out: IC50 (pSTAT3).
The mark [8] stands for this setting: SAR tables, % peptide remaining, pH 6.8, 4 h, read-out: SIF (% after 4 h).

Regarding `CC(C)C[C@@H]1NC(=O)[C@H](Cc2c[nH]c3ccccc23)NC(=O)[C@H](Cc2c[nH]c3ccccc23)NC(=O)[C@@H]2CSCC(=O)CSC[C@H](NC(=O)[C@H](CO)NC(=O)[C@@H](NC(=O)[C@@H](N)CC(=O)O)CCC(=O)NCCCC[C@@H](C(=O)N[C@@H](CCCNC(=N)N)C(N)=O)NC1=O)C(=O)N[C@@H](Cc1c[nH]c3ccccc13)C(=O)N[C@@H](CCC(N)=O)C(=O)N2` [Ref 4, H-DE(1c)SC(2a)WQC(2a)WWLK(1c)R-[NH2], reference compound] (HELM PEPTIDE1{D.E.S.C.W.Q.C.W.W.L.K.R.[am]}|CHEM1{[O=C(C[*:1])C[*:2]]}$PEPTIDE1,PEPTIDE1,2:R3-11:R3|PEPTIDE1,CHEM1,4:R3-1:R1|PEPTIDE1,CHEM1,7:R3-1:R2$$$V2.0), the “% displacement (hIL-23R NIuc)” value on human IL-23R was found to be 100%. For the same molecule, the concentration for half-maximal inhibition (IC50) (in general, the concentration that gives 50% inhibition) at human IL-23R is 180 nM; in data set [1] (setting [4]), 850 nM. In addition, on human IL-23R, the Ki – broadly, a measure of affinity in units of concentration, obtained from inhibition or displacement – came to 143 nM. Also, the Emax in data set [1] (Table 3-2) stood at 87%. Moreover, the remaining at 1 h, 10 µM in data set [2] was 0%; in data set [3] (pH 1.2, 10 µM), 1%. Besides, the remaining at 4 h, 10 µM in data set [2] (setting [5]) and in data set [3] (setting [6]) was 0% each time.

Turning to `CNC(=O)[C@H](Cc1cccnc1)NC(=O)[C@H](CCN)NC(=O)[C@@H]1CCC(=O)NCCCC[C@@H]2NC(=O)CC[C@H](NC(=O)[C@H](CCC(N)=O)NC(=O)[C@H](Cc3c[nH]c4ccccc34)NC(=O)CCNC2=O)C(=O)N[C@@H](Cc2ccc(OCCN)cc2)C(=O)N[C@@H](Cc2ccc3ccccc3c2)C(=O)N[C@@](C)(CC(C)C)C(=O)N1` [Compound 45, K(1c)(6c)^†[3-Aminopropanoyl]WQE(6c)[Y(2-aminoethoxy)][2-Nal][2-Me-Leu]E(1c)[Dab][3-(3-Pyridyl)-Ala]-[NHMe]], on human IL-23R, the “% displacement (hIL-23R NIuc)” value came to 100%. Besides, the IC50 against human IL-23R stood at 0.022 nM; in data set [1] (setting [7]), 0.058 nM. Further, the Emax in data set [1] (Table 3-2) was 100%. Further, in data set [2] (10 µM, pH 6.8, 4 h), the “SIF (% remaining 4 h)” value was 87%. Further, the remaining at 1 h, 10 µM in data set [2] is 90%; in data set [3] (pH 1.2, 10 µM), 98%. The remaining at 4 h, 10 µM in data set [2] (setting [8]) was 87%; in data set [3] (setting [6]), 103%.

As to `CC(=O)N[C@@H](CC(=O)O)C(=O)N[C@H]1CCC(=O)NCCCC[C@@H](C(=O)N[C@@H](CCCNC(=N)N)C(N)=O)NC(=O)[C@H](CC(C)C)NC(=O)[C@H](Cc2ccc3ccccc3c2)NC(=O)[C@H](Cc2c[nH]c3ccccc23)NC(=O)[C@@H]2CSCC(=O)CSC[C@H](NC(=O)[C@H](CO)NC1=O)C(=O)N[C@@H](Cc1c[nH]c3ccccc13)C(=O)N[C@@H](CCC(N)=O)C(=O)N2` [Ref 17, [Ac]-DE(1c)SC(2a)WQC(2a)W[2-Nal]LK(1c)R-[NH2], reference compound], the figures for the IC50 (at human IL-23R; in data set [1] (setting [4])) were 87 nM and 370 nM, respectively. This molecule gave a Ki on human IL-23R of 70.7 nM. Moreover, the remaining at 1 h, 10 µM was 0% in data set [2] and 0% in data set [3] (pH 1.2, 10 µM). Besides, the remaining at 4 h, 10 µM in data set [2] (setting [5]) and in data set [3] (setting [6]) was 0% each time.

For `CNC(=O)[C@H](Cc1cccnc1)NC(=O)[C@H](CCN)NC(=O)[C@@H]1CCC(=O)NCCCC[C@H]2CC(=O)NCC(=O)N[C@@H](Cc3c[nH]c4ccccc34)C(=O)N[C@@H](CCC(N)=O)C(=O)N[C@@H](CCC(=O)N2)C(=O)N[C@@H](Cc2ccc(OCCN)cc2)C(=O)N[C@@H](Cc2ccc3ccccc3c2)C(=O)N[C@@](C)(CC(C)C)C(=O)N1` [Compound 99, [beta-hLys](1c)(6c)^†GWQE(6c)[Y(2-aminoethoxy)][2-Nal][2-Me-Leu]E(1c)[Dab][3-(3-Pyridyl)-Ala]-[NHMe]], the values for the IC50 (against human IL-23R; in data set [1] (setting [7])) were 0.024 nM and 0.014 nM, respectively. For the same molecule, the Emax on human IL-23R (read-out: % displacement (hIL-23R NIuc)) is 101%; in data set [1] (Table 3-2), 100%. Besides, the “SIF (% remaining 4 h)” value in data set [2] (10 µM, pH 6.8, 4 h) is 42%. The remaining at 1 h, 10 µM in data set [2] is 74%; in data set [3] (pH 1.2, 10 µM) it was 104%. Further, the remaining at 4 h, 10 µM in data set [2] (setting [8]) is 42%; in data set [3] (setting [6]), 101%.

For `CC[C@H](C)[C@@H]1NC(=O)[C@@H]2CCCCNC(=O)CC[C@@H](C(=O)N[C@@H](CCN)C(=O)N[C@@H](Cc3cccnc3)C(=O)NC)NC(=O)[C@](C)(CC(C)C)NC(=O)[C@H](Cc3ccc4ccccc4c3)NC(=O)[C@H](Cc3ccc(OCCN)cc3)NC(=O)[C@H](CCC(=O)N2)NC(=O)[C@H](CCC(N)=O)NC(=O)[C@H](Cc2c[nH]c3ccccc23)NC(=O)[C@H](C(C)C)NC1=O` [Compound 60, K(1c)(6c)^†IVWQE(6c)[Y(2-aminoethoxy)][2-Nal][2-Me-Leu]E(1c)[Dab][3-(3-Pyridyl)-Ala]-[NHMe]], the “% displacement (hIL-23R NIuc)” value at human IL-23R came to 95%. For the same molecule, the IC50 against human IL-23R came to 0.049 nM. In addition, in data set [1] (Table 3-2), the Emax is 101%. For the same molecule, in data set [2] (10 µM, pH 6.8, 4 h), the “SIF (% remaining 4 h)” value is reported as 71%. The “SIF (% after 4 h)” value in data set [2] (SAR tables, % peptide remaining, 10 µM, pH 6.8, 4 h) is reported as 71%. The remaining at 1 h, 10 µM in data set [2] is 76%; in data set [3] (pH 1.2, 10 µM), 120%. Moreover, the remaining at 4 h, 10 µM in data set [2] (setting [8]) is 71%; in data set [3] (pH 1.2, SAR tables, % peptide remaining, 10 µM, pH 1.2, 4 h, read-out: SGF (% after 4 h)), 109%. Further, in data set [3] (SAR tables, % peptide remaining, 10 µM, pH 1.2, 4 h), the “SGF (% after 4 h)” value is 109%.

As for `CNC(=O)[C@H](Cc1cccnc1)NC(=O)[C@H](CCN)NC(=O)[C@@H]1CCC(=O)NCCCC[C@@H]2NC(=O)CC[C@H](NC(=O)[C@H](CCC(N)=O)NC(=O)[C@H](Cc3c[nH]c4ccccc34)NC(=O)CNC2=O)C(=O)N[C@@H](Cc2ccc(OCCN)cc2)C(=O)N[C@@H](Cc2ccc3ccccc3c2)C(=O)N[C@@](C)(CC(C)C)C(=O)N1` [Compound 44, K(1c)(6c)^†GWQE(6c)[Y(2-aminoethoxy)][2-Nal][2-Me-Leu]E(1c)[Dab][3-(3-Pyridyl)-Ala]-[NHMe]], on human IL-23R, the “% displacement (hIL-23R NIuc)” value came to 100%. For the same molecule, the IC50 came to 4 nM at human IL-23R and 15 nM in data set [1] (setting [7]). Besides, in data set [1] (Table 3-2), the Emax was 100%. Also, the “SIF (% remaining 4 h)” value in data set [2] (10 µM, pH 6.8, 4 h) was 5%. The remaining at 1 h, 10 µM was 77% in data set [2] and 100% in data set [3] (pH 1.2, 10 µM). The remaining at 4 h, 10 µM in data set [2] (setting [8]) was 5%; in data set [3] (setting [6]) it was 101%.

Turning to `CC(C)C[C@@H]1NC(=O)[C@H](Cc2ccc3ccccc3c2)NC(=O)[C@H](Cc2c[nH]c3ccccc23)NC(=O)[C@@H]2CSCC(=O)CSC[C@H](NC(=O)[C@H](CO)NC(=O)c3cccc(c3)CNC(=O)CC[C@@H](C(=O)N[C@@H](CCCNC(=N)N)C(N)=O)NC1=O)C(=O)N[C@@H](Cc1c[nH]c3ccccc13)C(=O)N[C@@H](CCC(N)=O)C(=O)N2` [Ref 37, [(3-Aminomethyl)benzoyl](1c)*SC(2a)WQC(2a)W[2-Nal]LE(1c)R-[NH2], reference compound] ([3Amb]SCWQCW[2Nal]LER-NH2; linker 3-6 via CH2COCH2; lactam N-10), on human IL-23R, the “% displacement (hIL-23R NIuc)” value came out at 103%. Further, the IC50 came to 12 nM at human IL-23R and 45 nM in data set [1] (setting [4]). At human IL-23R, the affinity corresponds to a Ki of 9.87 nM. For the same molecule, in data set [1] (Table 3-2), the Emax is 89%. The remaining at 1 h, 10 µM in data set [2] was 0%; in data set [3] (pH 1.2, 10 µM), 2%. Also, the remaining at 4 h, 10 µM is 0% in data set [2] (setting [5]) and 1% in data set [3] (setting [6]).
